Target: T1, PRKCD (PKC delta) (Homo sapiens, UniProt Q05655)
T1 construct: purchased Thermo Fisher Scientific (Life Technologies) SelectScreen
Experiment: SelectScreen Z'LYTE
Type: biochemical
How it was run: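 SelectScreen broad panel; activity (Z'LYTE, Adapta) plus binding formats. ATP: Km app for CSF1R Z'LYTE; 10 for CAMK1 Adapta. Readout = % per kinase.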

T1 sequence (Q05655 whole entry): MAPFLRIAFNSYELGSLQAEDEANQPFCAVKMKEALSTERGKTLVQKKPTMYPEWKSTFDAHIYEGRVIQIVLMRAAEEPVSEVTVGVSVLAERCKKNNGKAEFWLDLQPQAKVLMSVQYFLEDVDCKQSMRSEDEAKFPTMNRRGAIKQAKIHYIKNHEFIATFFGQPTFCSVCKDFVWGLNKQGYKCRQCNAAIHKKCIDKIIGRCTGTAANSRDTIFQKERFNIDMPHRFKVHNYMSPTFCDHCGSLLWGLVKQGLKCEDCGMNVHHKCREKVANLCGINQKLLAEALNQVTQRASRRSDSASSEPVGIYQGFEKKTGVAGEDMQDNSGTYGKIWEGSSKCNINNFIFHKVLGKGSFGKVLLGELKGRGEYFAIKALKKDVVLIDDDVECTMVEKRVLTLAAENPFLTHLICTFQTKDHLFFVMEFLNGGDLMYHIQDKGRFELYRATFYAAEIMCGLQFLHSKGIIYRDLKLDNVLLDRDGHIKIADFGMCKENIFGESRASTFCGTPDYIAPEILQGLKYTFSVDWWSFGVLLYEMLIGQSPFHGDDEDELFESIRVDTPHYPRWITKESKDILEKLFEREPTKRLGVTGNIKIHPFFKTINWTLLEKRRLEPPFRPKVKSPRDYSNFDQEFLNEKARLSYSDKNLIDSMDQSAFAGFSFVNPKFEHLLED

`CN(C(=O)CN1CCOCC1)c1ccc2sc3c(-c4cccc5c(=O)cc(N6CC7CCC(C6)O7)oc45)cccc3c2c1` [NU5455] was tested, and the inhibition at 1 µM was 6.2%.

— article PMC6934184, “Selective DNA-PKcs inhibition extends the therapeutic index of localized radiotherapy and chemotherapy” (The Journal of Clinical Investigation, 2019)
